In ChEMBL document CHEMBL1153618, “Discovery of potential new InhA direct inhibitors based on pharmacophore and 3D-QSAR analysis followed by in silico screening” (Eur J Med Chem, 2009):

Target: T1, Enoyl-[acyl-carrier-protein] reductase [NADH] (Mycobacterium tuberculosis, UniProt P9WGR1)
T1 sequence (P9WGR1 whole entry): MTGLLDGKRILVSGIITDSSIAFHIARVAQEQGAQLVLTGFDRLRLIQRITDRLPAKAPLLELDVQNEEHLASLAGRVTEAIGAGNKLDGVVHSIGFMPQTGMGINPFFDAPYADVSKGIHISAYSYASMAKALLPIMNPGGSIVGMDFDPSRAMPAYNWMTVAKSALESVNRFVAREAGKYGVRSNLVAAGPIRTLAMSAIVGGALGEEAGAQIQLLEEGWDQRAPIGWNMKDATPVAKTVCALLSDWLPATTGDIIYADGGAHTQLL
Assay: Inhibition of Mycobacterium tuberculosis InhA

Row | SMILES | IC50 [µM]
1 | COc1ccc(OC)c(/C=N/NC2=CS(=O)(=O)c3ccccc32)c1 | 5.13
2 | COc1ccc(/C=C2\SC(N3CCCCCC3)NC2=O)cc1OC (stereo not given) | 11
3 | COc1cc(Cl)ccc1NC(=O)c1ccc(C)c([N+](=O)[O-])c1 | 5.01
4 | Cc1cc(Cl)ccc1OCC(=O)Nc1cccc([N+](=O)[O-])c1C | 3.47
5 | Cc1ccc(OC(=O)c2ccccc2[N+](=O)[O-])c(Br)c1 | 9.55
6 | COc1ccc(Cl)cc1NC(=O)c1ccc(OC)c([N+](=O)[O-])c1 | 5.01
7 | COc1ccc(Cl)cc1NC(=O)c1ccc(Cl)c([N+](=O)[O-])c1 | 4.07
8 | CCN(CC)c1ccc(/C=C2/SC(N3CCCCC3)=NC2=O)cc1 | 6.17
9 | Cc1ccc(NC(=O)c2sc3ccccc3c2Cl)cc1[N+](=O)[O-] | 2.14
10 | Cc1ccc(C(=O)Nc2ccc(Cl)cc2Cl)cc1[N+](=O)[O-] | 8.71
11 | CCN(CC)c1ccc(NC(=O)c2ccccc2[N+](=O)[O-])cc1 | 4.37
12 | O=[N+]([O-])c1cc(/N=C/c2ccc(Cl)cc2Cl)ccc1Cl | 4.68
13 | CCOC(=O)C1=C(C)N/C(=C/c2cc(OC)ccc2OC)C1=O | 3.63
14 | COc1ccc(/C=C2/SC(N3CCC(C)CC3)=NC2=O)cc1OC | 10.7
15 | COc1ccc(C(=O)Nc2cc(Cl)ccc2Cl)cc1[N+](=O)[O-] | 13.8
16 | O=C(Nc1ccc(Cl)cc1Cl)c1ccccc1[N+](=O)[O-] | 20
17 | CCN(CC)c1ccc(/C=C2/N=C(c3ccccc3)OC2=O)cc1 | 3.31
18 | COc1cc(NC(=O)c2ccc(C)cc2[N+](=O)[O-])cc(OC)c1 | 1.35
19 | O=C1N=C(Nc2cc(Cl)cc(Cl)c2)S/C1=C/c1ccco1 | 17.8
20 | Cc1ccc(NC(=O)c2ccccc2[N+](=O)[O-])c(C)c1 | 10.5
21 | O=C(Nc1cc(Cl)ccc1Cl)c1ccc(Cl)c([N+](=O)[O-])c1 | 20
22 | O=C(Nc1ccc(Cl)c(Cl)c1)c1ccc(Cl)c([N+](=O)[O-])c1 | 52.5
23 | COc1cc(Cl)cc(/C=C2/SC(c3ccccc3)=NC2=O)c1O | 10.5
24 | COc1ccc(C(=O)Nc2cc(Cl)cc(Cl)c2)cc1[N+](=O)[O-] | 7.08
25 | COc1ccc(/C=C2/SC(N3CCCCC3)=NC2=O)cc1OC | 11.5
26 | O=C(Nc1cc(Cl)cc(Cl)c1)c1ccccc1[N+](=O)[O-] | 6.17
27 | COC(=O)c1c(NC(=O)c2ccccc2[N+](=O)[O-])sc2c1CCC2 | 1.82
28 | CCOc1ccc(/C=C2/SC(c3ccccc3)=NC2=O)cc1C | 10
29 | O=C(Nc1cc(Cl)c(Cl)cc1Cl)c1ccccc1[N+](=O)[O-] | 12
30 | COc1ccc(/C=C2/SC(N3CCCC3)=NC2=O)cc1OC | 7.24
